Experimental data as given in US20250282828A1, “PEPTIDES FOR THE TREATMENT OF RESPIRATORY INFECTIONS OF VIRAL ORIGIN” (CENTRO DE INGENIERÍA GENÉTICA Y BIOTECNOLOGÍA, priority 2020, published 2025).
No end group written: not given here.

Assays:
[1] = system: Mebus strain of bovine coronavirus; test: Inhibition of bovine coronavirus replication in MDBK cells (CPE, viral RNA RT-qPCR); assay type: cell-based; details: MOI 0.01, 120 hours
Protocol: To evaluate the antiviral effect of this peptide, bovine kidney cells known as MDBK were seeded in 24-well plates, at 280,000 cells per well, in DMEM culture medium with 10% fetal calf serum (FBS). The plates were incubated in a humid environment at 37° C. and 5% CO2. […] Once this treatment time elapsed, the culture medium was removed and the cells were infected with the Mebus strain of bovine coronavirus for 1 hour, in 200 μL of serum-free DMEM medium, at a multiplicity of infection (MOI) of 0.01 in a humid environment at 37° C. and 5% CO2. Subsequently, the volume of each well was brought up to 1 mL with serum-free DMEM medium in the presence of the peptide. Incubation for 120 hours was carried out, and cell-culture viability was evaluated by the method of metabolic reduction of MTT. To do this, the culture medium was removed. Two-hundred microliters of MTT were added to each well, and the plate was incubated for 2 to 4 hours at 37° C., 5% CO2 and 95% humidity. Subsequently, 300 μL of isobutyl alcohol were added and the plate was shaken for 1 hour. As an alternative to the MTT method, cells were stained with crystal violet (0.1%). Finally, the absorbance in each well was determined at 570 nm in a plate reader (Amersham). The antiviral effect was expressed as percent of inhibition of the cytopathic effect (CPE) (FIG. 1A) and inhibition of viral RNA (FIG. 1B) by RT-qPCR.

[2] = system: vimentin intermediate filaments; test: Immunodetection of vimentin intermediate filaments in MDBK cells; assay type: cell-based, bovine; details: 100 μM, 24 hours
Protocol: (§1) They were then fixed and permeabilized in a solution of acetone:methanol (1:1 V/V) for 10 min at −20° C. and blocked with 1% bovine serum albumin in phosphate buffered saline for 30 min, at 37° C. Vimentin intermediate filaments were detected using a murine anti-vimentin IgG1 monoclonal antibody (4.5 μg/mL) followed by an anti-mouse antibody conjugated to fluorescein isothiocyanate (1/200). Vimentin intermediate filaments (FI) were observed distributed throughout the cytoplasm, from the perinuclear region towards one or both poles of the cell.

[3] = system: vimentin intermediate filaments; test: Immunodetection of vimentin intermediate filaments in VeroE6 cells; assay type: cell-based, African green monkey; details: 100 μM, 24 hours
Protocol: as §1

[4] = biological target: pAb anti-SEQ ID NO: 1; test: BIACORE surface plasmon resonance interaction with immobilized peptide; assay type: binding, rabbit
[5] = biological target: T1, ZIKV E protein (Zika) (Zika virus, UniProt A0A024B7W1); test: as above; assay type: binding
T1 construct: the envelope protein of the Zika virus (ZIKV E)
T1 sequence (A0A024B7W1 291-794): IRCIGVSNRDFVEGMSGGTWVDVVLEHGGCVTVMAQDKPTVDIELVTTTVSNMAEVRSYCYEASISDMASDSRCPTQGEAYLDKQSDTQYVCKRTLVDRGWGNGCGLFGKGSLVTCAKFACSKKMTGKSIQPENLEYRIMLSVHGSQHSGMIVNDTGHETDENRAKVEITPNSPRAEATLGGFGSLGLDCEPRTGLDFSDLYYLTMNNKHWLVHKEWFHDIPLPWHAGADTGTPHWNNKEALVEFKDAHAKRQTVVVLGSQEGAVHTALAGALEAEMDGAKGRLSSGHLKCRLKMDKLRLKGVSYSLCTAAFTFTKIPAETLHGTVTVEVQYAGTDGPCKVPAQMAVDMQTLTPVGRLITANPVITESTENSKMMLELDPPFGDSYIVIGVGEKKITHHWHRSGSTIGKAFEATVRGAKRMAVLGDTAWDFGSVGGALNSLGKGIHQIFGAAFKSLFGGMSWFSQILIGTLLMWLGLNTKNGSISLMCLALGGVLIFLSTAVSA

[6] = biological target: p24 (HIV) (Human immunodeficiency virus type 1 group M subtype B, UniProt P04591); test: as above; assay type: binding, HIV-1
[7] = biological target: T2, Dengue 2 virus capsid protein (Dengue virus type 2, UniProt P29990); test: as above; assay type: binding
T2 construct: with the Dengue 2 virus capsid protein
T2 sequence (P29990 1-100 limits assumed): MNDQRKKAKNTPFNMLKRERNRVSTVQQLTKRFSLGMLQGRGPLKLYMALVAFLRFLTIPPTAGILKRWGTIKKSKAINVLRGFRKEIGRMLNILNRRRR

[8] = system: capsid protein of the Influenza H1N1 virus; test: as above; assay type: binding
[9] = biological target: receptor binding-domain of the viral S protein (RBD) (Severe acute respiratory syndrome coronavirus 2, UniProt P0DTC2); test: as above; set-up: species or system SARS-CoV-2
[10] = biological target: T3, extracellular domain of the ACE2 receptor (Homo sapiens, UniProt Q9BYF1); test: as above; assay type: binding
T3 construct: the extracellular domain of the ACE2 receptor
T3 sequence (Q9BYF1 18-740): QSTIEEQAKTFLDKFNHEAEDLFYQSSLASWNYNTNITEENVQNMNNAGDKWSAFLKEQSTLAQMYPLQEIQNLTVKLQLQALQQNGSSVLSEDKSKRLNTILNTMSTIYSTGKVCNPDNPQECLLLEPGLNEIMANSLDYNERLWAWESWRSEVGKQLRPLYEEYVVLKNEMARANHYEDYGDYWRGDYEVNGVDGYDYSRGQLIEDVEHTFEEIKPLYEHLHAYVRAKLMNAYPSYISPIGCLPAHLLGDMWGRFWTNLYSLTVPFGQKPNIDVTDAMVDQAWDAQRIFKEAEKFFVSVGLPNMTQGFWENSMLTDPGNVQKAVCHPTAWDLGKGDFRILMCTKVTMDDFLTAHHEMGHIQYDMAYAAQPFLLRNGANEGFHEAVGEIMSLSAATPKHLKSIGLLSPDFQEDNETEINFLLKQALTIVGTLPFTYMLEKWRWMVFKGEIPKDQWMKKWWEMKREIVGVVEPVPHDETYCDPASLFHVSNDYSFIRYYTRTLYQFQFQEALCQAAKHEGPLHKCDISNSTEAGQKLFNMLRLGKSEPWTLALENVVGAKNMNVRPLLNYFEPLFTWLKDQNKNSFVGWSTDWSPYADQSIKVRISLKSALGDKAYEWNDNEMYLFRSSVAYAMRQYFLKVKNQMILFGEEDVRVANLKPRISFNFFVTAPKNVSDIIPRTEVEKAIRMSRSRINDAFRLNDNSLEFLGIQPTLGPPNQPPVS

[11] = system: Influenza A H1N1; assay type: cell-based; details: 50 μM; tracheo-bronchial HAE
[12] = system: Parainfluenza virus type 3 (HPIV3); assay type: cell-based; details: 50 μM; HAE, 3 days
[13] = system: respiratory syncytial virus (RSV); test: Respiratory syncytial virus replication in bronchial HAE (RT-qPCR); assay type: cell-based; details: 50 μM, 10 days
[14] = system: AdV 7 Gomen strain; test: Adenovirus type 7 replication in bronchial HAE (qPCR); assay type: cell-based; details: 50 μM, 24 hours
[15] = system: herpes simplex virus type 1 (HSV-1); test: HSV-1 replication in primary explants of human nasal mucosa (qPCR); assay type: cell-based; details: 100 μM, 36 hours
Protocol: The replication of herpes simplex virus type 1 (HSV-1) was performed in primary explants of human nasal mucosa, according to Glorieux et al. (Glorieux et al. 2011, PLoS ONE, 6(7): e22160, doi: 10.1371/journal.pone.0022160). […] Afterwards, the cultures were washed and kept at 37° C. and 5% CO2 for 36 hours, in presence of the peptides in culture medium. The cultures were harvested, and HSV-1 was quantified by qPCR. The percentages of viral inhibition ranged from 70 to 92% in presence of the peptides (Table 5).

[16] = system: SARS-CoV-2; test: Prophylaxis in healthy contacts of COVID-19 patients (RT-qPCR of nasopharyngeal swabs); assay type: in vivo, human; details: Group II, intranasal drops 14 μg/mL daily for 6 days
Protocol: Healthy individuals, contacts of COVID-19 patients, were included in this study. Two groups of 25 healthy individuals exposed to a similar risk of contagion (Group I and Group II) were analyzed. Group II was treated daily, for 6 days, with the peptide identified in the Sequence Listing as SEQ ID NO: 1 as intranasal drops, at a concentration of 14 μg/mL. Nasopharyngeal swab samples were collected for SARS-CoV-2 detection by RT-qPCR (Roche). Sampling was carried out at the beginning of the study and 7 days after it began.

[17] = system: SARS-CoV-2; details: 96 h, 50 μM
[18] = system: SARS-CoV-2; details: 72 h, 100 μM
[19] = system: CSF virus Margarita strain; details: 72 h
[20] = in vitro; details: pig, PK15 cells

Question: Which “antiviral effect on bovine coronavirus infection (inhibition of CPE, viral RNA)” value [1] does the source give for RVTQMNLNDRLASLYDKV [SEQ ID NO: 1] here?
Answer: exerts an antiviral effect

Question: What about the “damage to cell integrity after treatment” value [2] of the same sequence?
Answer: no damage to cell integrity was observed

Question: What about the “damage to cell integrity after treatment” value [3] of the same sequence?
Answer: no damage to cell integrity was observed

Question: What about the Kd [4] of the same sequence?
Answer: 115 nM

Question: What about the ka [4] of the same sequence?
Answer: 2750 M⁻¹ s⁻¹

Question: And the kd [4]?
Answer: 0.000318 s⁻¹

Question: What about the Kd [5] of the same sequence?
Answer: 1590 nM

Question: What about the Rmax [5] of the same sequence?
Answer: 2.11 × 10^4 RU

Question: What about the interaction [5] of the same sequence?
Answer: showed interaction

Question: And the kd [5]?
Answer: 0.00154 s⁻¹

Question: What about the kon ([5]; read-out: ka) of the same sequence?
Answer: 965 M⁻¹ s⁻¹

Question: What about the interaction [6] of the same sequence?
Answer: absence of interaction

Question: And the Kd [7]?
Answer: 1.67 nM

Question: And the Rmax [7]?
Answer: 409 RU

Question: And the interaction [7]?
Answer: concentration dependent interaction

Question: What about the kd [7] of the same sequence?
Answer: 0.000413 s⁻¹

Question: What about the kon ([7]; read-out: ka) of the same sequence?
Answer: 247000 M⁻¹ s⁻¹

Question: What about the Kd [8] of the same sequence?
Answer: 769 nM

Question: What about the interaction [8] of the same sequence?
Answer: showed interaction

Question: And the interaction [9]?
Answer: neither the RBD nor the ACE2 peptide interact

Question: What about the interaction [10] of the same sequence?
Answer: neither the RBD nor the ACE2 peptide interact

Question: And the “Influenza A H1N1 Inhib. %” value [11]?
Answer: 86%

Question: And the “Parainfluenza Type 3 Inhib. %” value [12]?
Answer: 79%

Question: And the “Sincitial respiratory virus Inhib. %” value [13]?
Answer: 80%

Question: What about the “Adenovirus Ad7 Inhib. %” value [14] of the same sequence?
Answer: 68%

Question: And the “Herpes simplex HSV-1 Inhib. %” value [15]?
Answer: 92%

Question: What about the “SARS-CoV-2 positive cases (%)” value ([16]; Day 7) of the same sequence?
Answer: 3.9%

Question: What about the “SARS-CoV-2 positive cases/Total” value ([16]; Day 7) of the same sequence?
Answer: 1/25

Question: And the “SARS-CoV-2 positive cases (%)” value ([16]; Day of onset)?
Answer: 0%

Question: And the “SARS-CoV-2 positive cases/Total” value ([16]; Day of onset)?
Answer: 0/25

Question: What about the Inhibition % [17] of the same sequence?
Answer: 83.3%

Question: And the “Bronchial HAE Inhibition %” value [18]?
Answer: 84%

Question: And the “Nasal HAE Inhibition %” value [18]?
Answer: 74%

Question: And the IC50 [19]?
Answer: 300 nM

Question: What about the CC50 at 96 h [20] of the same sequence?
Answer: > 400000 nM
